# Assay results reported in PubChem BioAssay AID2060486 (Molecular Pharmacology Branch, DTP, NCI, 2025).
# Tested on: IGROV1 complex spheroids (HUVEC, MSC), viability % test/control
# Assay: Anticancer human tumor IGROV1 cell line growth inhibition [GQUAD];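 also: spheroids exposed to compounds for 7 days before readout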
# Details: for IC50: curve of first compound; for viability, T/C: stronger effect = lower value
# Description: DNA G-quadruplex Stabilizer Agents in Combinations in Complex Spheroids
# A high-throughput screen of multi-cell type tumor spheroids was designed to identify active combinations of DNA G-quadruplex stabilizer agents and targeted small molecules. Complex spheroids include a stromal component modeled by human endothelial cells (HUVEC) and fibroblasts modeled by human mesenchymal stem cells (MSCs). The concentration ranges selected for each drug and investigational agent were based upon clinically achievable concentrations if the clinical Cmax of the agent was known.
# Compounds. The drugs and investigational agents: pidnarulex (CX-5461; NSC782164), APTO-253 (NSC789042), BRACO-19 (NSC847499), peposertib (NSC802822), ceralasertib (NSC780249), elimusertib (NSC800525), camonsertib (NSC841442), AZD-1390 (NSC803789), olaparib (NSC753686), talazoparib (NSC767125), ART-558 (NSC835418), sotorasib (NSC818433), MRTX-1133 (NSC836407), SN-38 (NSC673596), topotecan (NSC609699), etoposide (NSC141540), doxorubicin (NSC123127), gemcitabine (NSC613327), 5-fluorouracil (NSC19893), paclitaxel (NSC125973), vemurafenib (NSC761431), panobinostat (NSC761190), R-306465 (JNJ-16241199; NSC773264), adavosertib (NSC754352), TP-3654 (NSC805149), carboplatin (NSC241240), KSQ-4279 (NSC840948), and staurosporine (NSC755774) were obtained from the National Cancer Institute (NCI) Developmental Therapeutics Program Chemical Repository (34). The FDA-approved anticancer drug set is available from the NCI Developmental Therapeutics Program. […] The stock solutions were prepared in dimethyl sulfoxide (DMSO, Sigma-Aldrich, St. Louis, MO, cat. D2650) at 800-fold the tested concentration and stored at -70 degrees C prior to their use. All drugs and investigational agents were tested over a range starting from a high concentration at or near the clinical Cmax and decreasing in half-log increments. If the clinical Cmax for an agent had not been determined, the highest concentration tested was 10 microM.
# 2.3 Cell Culture. All cells were maintained in an incubator at 37 degrees C and 5% CO2 with 95% humidity. The PDC lines were cultured according to standard operating procedures established by the NCI PDMR. All PDCs were thawed and cultured in Matrigel-coated flasks prepared with a working solution of 1X Ham's F-12 nutrient mix, without supplementation (Invitrogen, cat. 11765054), 100 U/mL penicillin-streptomycin (Invitrogen, cat. 15140122), and 2.5% Matrigel (Corning Inc., cat. 354248) for the first three passages. The 857933-349-R-J2-PDC line was cultured in 6C/Colon 1B media, which includes advanced DMEM/F-12 (Thermo Fisher Scientific, cat. 12634028), 10 mM HEPES (Thermo Fisher Scientific, cat. 15630080), 1X GlutaMAX supplement (Thermo Fisher Scientific, cat. 35050061), 0.1 mg/mL primocin (InvivoGen, cat. ant-pm-2), 10% defined fetal bovine serum, heat inactivated (HyClone Laboratories Inc., cat. SH30070.03HI), 50% L-WRN conditioned media (ATCC, cat. CRL-3276), 1.25 mM N-Acetyl-L-cysteine (Sigma-Aldrich, cat. A9165), 10 mM nicotinamide (Sigma-Aldrich, cat. N0636), 1X B-27 supplement (Thermo Fisher Scientific, cat. 17504044), 1X N-2 supplement (Thermo Fisher Scientific, cat. 17502048), 10 microM Y-27632 dihydrochloride (Tocris Bioscience, cat. 1254), and 50 ng/mL human EGF recombinant protein (Thermo Fisher Scientific, cat. PHG0311). The 485176-168-R4-J1-PDC line was cultured in Panc media, which includes all 6C/Colon 1B media components plus 100 ng/mL human FGF-10 (Thermo Fisher Scientific, cat. 100-26), 500 nM SB-431542 (Selleckchem, cat. S1067), and gastrin (Tocris, cat. 3006).
# […]
# [1] = second compound 0.0316 µM, first compound 0.0316 µM
# [2] = second compound 0.0316 µM, first compound 0.316 µM
# [3] = second compound 0.1 µM, first compound 0.0316 µM
# [4] = second compound 0.1 µM, first compound 0.316 µM
# [5] = second compound 0.316 µM, first compound 0.0316 µM
# [6] = second compound 0.316 µM, first compound 0.316 µM
# [7] = second compound 1 µM, first compound 0.0316 µM
# [8] = second compound 1 µM, first compound 0.316 µM
# [9] = second compound 3.16 µM, first compound 0.0316 µM
# [10] = second compound 3.16 µM, first compound 0.316 µM
# [11] = second compound 10 µM, first compound 0.0316 µM
# [12] = second compound 10 µM, first compound 0.316 µM
smiles,measurement,setting,value
Cc1[nH]c2ccccc2c1CCNCc1ccc(/C=C/C(=O)NO)cc1 + CN(C)c1ccc(Nc2c3ccc(NC(=O)CCN4CCCC4)cc3nc3cc(NC(=O)CCN4CCCC4)ccc23)cc1,IC50,second compound 0.0316 µM,19.1 nM
same,IC50,second compound 0.1 µM,10.2 nM
same,IC50,second compound 0.316 µM,22.7 nM
same,IC50,second compound 1 µM,14.7 nM
same,IC50,second compound 3.16 µM,12.4 nM
same,IC50,second compound 10 µM,11.7 nM
same,"viability, T/C","second compound 0.0316 µM, first compound 0.000999 µM",104%
same,"viability, T/C","second compound 0.0316 µM, first compound 0.00316 µM",84.2%
same,"viability, T/C","second compound 0.0316 µM, first compound 0.00999 µM",79.3%
same,"viability, T/C",[1],28.5%
same,"viability, T/C","second compound 0.0316 µM, first compound 0.0999 µM",4.27%
same,"viability, T/C",[2],0.32%
same,"viability, T/C","second compound 0.1 µM, first compound 0.000999 µM",84.3%
same,"viability, T/C","second compound 0.1 µM, first compound 0.00316 µM",67.5%
same,"viability, T/C","second compound 0.1 µM, first compound 0.00999 µM",51.4%
same,"viability, T/C",[3],30.1%
same,"viability, T/C","second compound 0.1 µM, first compound 0.0999 µM",3.89%
same,"viability, T/C",[4],0.33%
same,"viability, T/C","second compound 0.316 µM, first compound 0.000999 µM",77.1%
same,"viability, T/C","second compound 0.316 µM, first compound 0.00316 µM",77.7%
same,"viability, T/C","second compound 0.316 µM, first compound 0.00999 µM",70.1%
same,"viability, T/C",[5],42.1%
same,"viability, T/C","second compound 0.316 µM, first compound 0.0999 µM",4.59%
same,"viability, T/C",[6],0.38%
same,"viability, T/C","second compound 1 µM, first compound 0.000999 µM",65.2%
same,"viability, T/C","second compound 1 µM, first compound 0.00316 µM",89%
same,"viability, T/C","second compound 1 µM, first compound 0.00999 µM",54.2%
same,"viability, T/C",[7],31.2%
same,"viability, T/C","second compound 1 µM, first compound 0.0999 µM",5.62%
same,"viability, T/C",[8],0.2%
same,"viability, T/C","second compound 3.16 µM, first compound 0.000999 µM",64%
same,"viability, T/C","second compound 3.16 µM, first compound 0.00316 µM",82.1%
same,"viability, T/C","second compound 3.16 µM, first compound 0.00999 µM",48.8%
same,"viability, T/C",[9],29.6%
same,"viability, T/C","second compound 3.16 µM, first compound 0.0999 µM",4.53%
same,"viability, T/C",[10],0.37%
same,"viability, T/C","second compound 10 µM, first compound 0.000999 µM",53%
same,"viability, T/C","second compound 10 µM, first compound 0.00316 µM",55.4%
same,"viability, T/C","second compound 10 µM, first compound 0.00999 µM",56.6%
same,"viability, T/C",[11],18.1%
same,"viability, T/C","second compound 10 µM, first compound 0.0999 µM",4.24%
same,"viability, T/C",[12],0.47%
C=CC(=O)N1CCN(c2nc(=O)n(-c3c(C)ccnc3C(C)C)c3nc(-c4c(O)cccc4F)c(F)cc23)C(C)C1 (centres undefined) + Cc1[nH]c2ccc(F)cc2c1-c1nc2c3cccnc3c3ncccc3c2[nH]1,IC50,second compound 0.0316 µM,> 10000 nM
same,IC50,second compound 0.1 µM,> 10000 nM
same,IC50,second compound 0.316 µM,> 10000 nM
same,IC50,second compound 1 µM,< 31.6 nM
same,IC50,second compound 3.16 µM,< 31.6 nM
same,IC50,second compound 10 µM,< 31.6 nM
same,"viability, T/C",[1],104%
same,"viability, T/C","second compound 0.0316 µM, first compound 0.1 µM",70.5%
same,"viability, T/C",[2],103%
same,"viability, T/C","second compound 0.0316 µM, first compound 1 µM",45.8%
same,"viability, T/C","second compound 0.0316 µM, first compound 3.16 µM",94.8%
same,"viability, T/C","second compound 0.0316 µM, first compound 10 µM",87.5%
same,"viability, T/C",[3],90.2%
same,"viability, T/C","second compound 0.1 µM, first compound 0.1 µM",89.7%
same,"viability, T/C",[4],80.6%
same,"viability, T/C","second compound 0.1 µM, first compound 1 µM",75.1%
same,"viability, T/C","second compound 0.1 µM, first compound 3.16 µM",92.8%
same,"viability, T/C","second compound 0.1 µM, first compound 10 µM",99.2%
same,"viability, T/C",[5],70.5%
same,"viability, T/C","second compound 0.316 µM, first compound 0.1 µM",93.9%
same,"viability, T/C",[6],76.2%
same,"viability, T/C","second compound 0.316 µM, first compound 1 µM",78.9%
same,"viability, T/C","second compound 0.316 µM, first compound 3.16 µM",80%
same,"viability, T/C","second compound 0.316 µM, first compound 10 µM",56.8%
same,"viability, T/C",[7],3.43%
same,"viability, T/C","second compound 1 µM, first compound 0.1 µM",3.79%
same,"viability, T/C",[8],6.26%
same,"viability, T/C","second compound 1 µM, first compound 1 µM",4.23%
same,"viability, T/C","second compound 1 µM, first compound 3.16 µM",4.27%
same,"viability, T/C","second compound 1 µM, first compound 10 µM",2.01%
same,"viability, T/C",[9],3.63%
same,"viability, T/C","second compound 3.16 µM, first compound 0.1 µM",4.79%
same,"viability, T/C",[10],4.74%
same,"viability, T/C","second compound 3.16 µM, first compound 1 µM",4.03%
same,"viability, T/C","second compound 3.16 µM, first compound 3.16 µM",4.45%
same,"viability, T/C","second compound 3.16 µM, first compound 10 µM",2.13%
same,"viability, T/C",[11],4.57%
same,"viability, T/C","second compound 10 µM, first compound 0.1 µM",4.39%
same,"viability, T/C",[12],4.91%
same,"viability, T/C","second compound 10 µM, first compound 1 µM",5.12%
same,"viability, T/C","second compound 10 µM, first compound 3.16 µM",4.17%
same,"viability, T/C","second compound 10 µM, first compound 10 µM",2.46%
